IC50 data for 10 compounds are collected here from patent US9169241B2, “Quinolinyloxyphenylsulfonamides” (Max-Planck-Gesellschaft Zur Forderung der Wissenschaften …, priority 2009, dated 2015).

Holding throughout (assay type): cell-based
In one experiment the test system is U118. As to the kind of experiment: Apoptosis assay (Cellomics, nucleus condensation). Conditions: Table III, read-out: Apoptosis induction in U118. The method, boiled down: (§1)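 Cells at 5000 per well were stained live with Hoechst 33342 and imaged on an automated fluorescence microscope after 24 h and 48 h compound exposure (12.5 μM down to 0.39 μM, twofold steps; DMSO control). Per-nucleus intensity variation quantified nuclear condensation; cell counts were also recorded.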

For a further experiment, the system named is Hs578T. The experiment is described as follows: Apoptosis assay (Cellomics, nucleus condensation). As to conditions: Homo sapiens, Hs-578T, Table III, read-out: Apoptosis induction in Hs578T. In short, it runs like this:
as §1

Experiment [1] relates to SF763. As to the kind of experiment: Apoptosis assay (Cellomics, nucleus condensation). Conditions: Table III, read-out: Apoptosis induction in SF763. The method, boiled down: as §1
The test system of experiment [2] is U138. As to the kind of experiment: Apoptosis assay (Cellomics, nucleus condensation). Conditions: Table III, read-out: Apoptosis induction in U138. In short, it runs like this:
as §1

The test system of experiment [3] is C8161. The experiment is described as follows: Apoptosis assay (Cellomics, nucleus condensation). As to conditions: Homo sapiens, Table III, read-out: Apoptosis induction in C8161. In short, it runs like this:
as §1

In a further experiment the test system is SF126. The experiment is described as follows: Apoptosis assay (Cellomics, nucleus condensation). Conditions: Homo sapiens, SF-126, Table III, read-out: Apoptosis induction in SF126. The method, boiled down:
as §1

A further experiment has as its system A172. As to the kind of experiment: Cell vitality assay (ATP assay, CellTiter-Glo). Conditions: Homo sapiens, A 172; A172, 72 h; Table IIa; read-out: IC50 ATP-Assay after 72 h A172. In short, it runs like this:
(§2)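 IC50s reflect 50% loss of ATP-dependent luminescence versus DMSO control after a 72 h treatment of 1000 cells per well across 0.195–12.5 μM compound.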

Experiment [4] deals with SF763. As to the kind of experiment: Cell vitality assay (ATP assay, CellTiter-Glo). As to conditions: SF763, 72 h; Table IIa; read-out: IC50 ATP-Assay after 72 h SF763. The method, boiled down:
as §2
(In ATP-based viability assays light output follows the ATP content of the culture.)

The test system of experiment [5] is U138. As to the kind of experiment: Cell vitality assay (ATP assay, CellTiter-Glo). Conditions: U138, 72 h; Table IIa; read-out: IC50 ATP-Assay after 72 h U138. In short, it runs like this: as §2
In experiment [6] the test system is C8161. As to the kind of experiment: Cell vitality assay (ATP assay, CellTiter-Glo). As to conditions: Homo sapiens; C8161, 72 h; Table IIa; read-out: IC50 ATP-Assay after 72 h C8161. The method, boiled down:
as §2

Another experiment deals with MDA-MB231. The experiment is described as follows: Cell vitality assay (ATP assay, CellTiter-Glo). Conditions: Homo sapiens, MDA-MB-231. In short, it runs like this:
as §2

A further experiment concerns cells. As to the kind of experiment: Boyden chamber migration assay (Table VI). As to conditions: Hs578T cells, 16 h migration. The method, boiled down: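 Migration read-out is a count of fixed cells on the underside of an […] insert membrane after 16 h. Chemoattractant was medium with 10% FCS in the lower chamber; 20000 cells started in serum-free medium with 0.1% BSA above, and those left on top were removed by swab.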

[7] abbreviates: MDA-MB231, 72 h, Table IIa, read-out: IC50 ATP-Assay after 72 h MDA-MB231.

Read-outs that look alike come from different tables or passages of the source. Some results are limits rather than exact numbers.

On to `COc1cc2c(Oc3ccc(NS(=O)(=O)c4cc(F)ccc4F)cc3F)ccnc2cc1OCCCN1CCCCC1` [Example 1, 2,5-Difluoro-N-{3-fluoro-4-[6-methoxy-7-(3-piperidin-1-yl-propoxy)-quinolin-4-yloxy]-phenyl}-benzenesulfonamide], for which the IC50 was no more than 12.5 µM in the experiment on U118; no more than 12.5 µM with Hs578T; 12.5 to 50 µM in the experiment on SF763 [1]; no more than 12.5 µM in the experiment with U138 [2]; no more than 12.5 µM in the experiment with C8161 [3]; no more than 12.5 µM in the experiment on SF126. Further, the IC50 with A172 is no more than 12.5 µM; in the experiment on SF763 [4], no more than 12.5 µM; in the experiment on U138 [5] it was no more than 12.5 µM; in the experiment on C8161 [6], 12.5 to 50 µM; in the experiment on MDA-MB231 (setting [7]), 12.5 to 50 µM; with MDA-MB231 (cell vitality assay, MDA-MB231, Table IIc, read-out: IC50 MDA-MB231) it was no more than 12.5 µM.
Regarding `COc1cc2c(Oc3ccc(NS(=O)(=O)c4ccccc4[N+](=O)[O-])cc3F)ccnc2cc1OCCCN1CCCCC1` [Example 7, N-{3-Fluoro-4-[6-methoxy-7-(3-piperidin-1-yl-propoxy)-quinolin-4-yloxy]-phenyl}-2-nitro-benzenesulfonamide], the IC50 was 12.5 to 50 µM in the experiment with U118; no more than 12.5 µM in the experiment with Hs578T; no more than 12.5 µM in the experiment on SF763 [1]; no more than 12.5 µM with U138 [2]; no more than 12.5 µM in the experiment with C8161 [3]; no more than 5 µM in the experiment on cells (Homo sapiens, Hs-578T, 16 h). The IC50 was 12.5 to 50 µM in the experiment with A172; no more than 12.5 µM in the experiment with SF763 [4]; no more than 12.5 µM in the experiment with U138 [5]; no more than 12.5 µM in the experiment on C8161 [6]; no more than 12.5 µM in the experiment on MDA-MB231 (setting [7]).
Take `COc1cc2c(Oc3ccc(NS(=O)(=O)c4cccc(Oc5ccccc5)c4)cc3F)ccnc2cc1OCCCN1CCCCC1` [Example 10, N-{3-Fluoro-4-[6-methoxy-7-(3-piperidin-1-yl-propoxy)-quinolin-4-yloxy]-phenyl}-3-phenoxy-benzenesulfonamide]: the IC50 in the experiment on U118 was no more than 12.5 µM; with Hs578T, no more than 12.5 µM; in the experiment on SF763 [1], 12.5 to 50 µM; in the experiment with U138 [2] it was no more than 12.5 µM; in the experiment on C8161 [3], no more than 12.5 µM; in the experiment on SF126, 12.5 to 50 µM. Further, the IC50 in the experiment on cells (Homo sapiens, Hs-578T, 16 h) was no more than 5 µM; in the experiment with A172, no more than 12.5 µM; in the experiment with SF763 [4], no more than 12.5 µM; in the experiment with U138 [5], no more than 12.5 µM; in the experiment on C8161 [6] it was no more than 12.5 µM; in the experiment with MDA-MB231 (setting [7]), no more than 12.5 µM.
Regarding `COc1cc2c(Oc3ccc(NS(=O)(=O)c4ccccc4Cl)cc3F)ccnc2cc1OCCCN1CCCC(C)C1` (stereo not shown) [Example 38, 2-Chloro-N-(3-fluoro-4-{6-methoxy-7-[3-(3-methyl-piperidin-1-yl)-propoxy]-quinolin-4-yloxy}-phenyl)-benzenesulfonamide], the IC50 in the experiment on U118, with Hs578T, in the experiment with SF763 [1], in the experiment with U138 [2], with C8161 [3] and in the experiment with SF126 was no more than 12.5 µM each time. Besides, the IC50 with cells (Homo sapiens, Hs-578T, 16 h) was 5 to 50 µM; with A172, no more than 12.5 µM; in the experiment with SF763 [4] it was no more than 12.5 µM; in the experiment on U138 [5], no more than 12.5 µM; in the experiment with C8161 [6] it was no more than 12.5 µM; in the experiment with MDA-MB231 (setting [7]), no more than 12.5 µM.
For the compound `COc1cc2c(Oc3ccc(NS(=O)(=O)c4ccc(F)cc4F)cc3F)ccnc2cc1OCCCN1CCCC(C)C1` (stereo not shown) [Example 47, 2,4-Difluoro-N-(3-fluoro-4-{6-methoxy-7-[3-(3-methyl-piperidin-1-yl)-propoxy]-quinolin-4-yloxy}-phenyl)-benzenesulfonamide], the IC50 with U118 was no more than 12.5 µM; with Hs578T it was no more than 12.5 µM; with SF763 [1], no more than 12.5 µM; with U138 [2] it was no more than 12.5 µM; in the experiment on C8161 [3], 12.5 to 50 µM; in the experiment on SF126, 12.5 to 50 µM. The IC50 in the experiment with cells (Homo sapiens, Hs-578T, 16 h) was no more than 5 µM; in the experiment on A172, no more than 12.5 µM; in the experiment on SF763 [4], no more than 12.5 µM; in the experiment on U138 [5], no more than 12.5 µM; in the experiment on C8161 [6] it was 12.5 to 50 µM; with MDA-MB231 (setting [7]), 12.5 to 50 µM.
As to `COc1cc2c(Oc3ccc(NS(=O)(=O)c4ccc(F)c(C#N)c4)cc3F)ccnc2cc1OCCCN1CCCC(C)C1` (stereo not shown) [Example 72, 3-Cyano-4-fluoro-N-(3-fluoro-4-{6-methoxy-7-[3-(3-methyl-piperidin-1-yl)-propoxy]-quinolin-4-yloxy}-phenyl)-benzenesulfonamide], the IC50 in the experiment with U118 was no more than 12.5 µM; with Hs578T, no more than 12.5 µM; in the experiment with SF763 [1] it was no more than 12.5 µM; with U138 [2] it was 12.5 to 50 µM; with C8161 [3], no more than 12.5 µM; with SF126 it was 12.5 to 50 µM. In addition, the IC50 with cells (Homo sapiens, Hs-578T, 16 h) is no more than 5 µM; in the experiment with SF763 [4], 12.5 to 50 µM; in the experiment on U138 [5], 12.5 to 50 µM; with C8161 [6], 12.5 to 50 µM; with MDA-MB231 (setting [7]), 12.5 to 50 µM.
With `COc1cc2c(Oc3c(Cl)cc(NS(=O)(=O)c4c(F)cccc4F)cc3Cl)ccnc2cc1OCCCN1CCN(C)CC1` [Example 88, N-(3,5-Dichloro-4-{6-methoxy-7-[3-(4-methyl-piperazin-1-yl)-propoxy]-quinolin-4-yloxy}-phenyl)-2,6-difluoro-benzenesulfonamide], the IC50 with U118, with Hs578T, in the experiment with SF763 [1], in the experiment on U138 [2], in the experiment with C8161 [3] and in the experiment on SF126 was no more than 12.5 µM in each case. Besides, the IC50 is no more than 5 µM with cells (Homo sapiens, Hs-578T, 16 h); 12.5 to 50 µM in the experiment with SF763 [4]; 12.5 to 50 µM with U138 [5]; no more than 12.5 µM with C8161 [6]; no more than 12.5 µM in the experiment on MDA-MB231 (setting [7]).
Take `COc1cc2c(Oc3ccc(NS(=O)(=O)c4ccccc4C(F)(F)F)cc3F)ccnc2cc1OCC(=O)N(C)C` [Example 93, 2-{4-[2-Fluoro-4-(2-trifluoromethyl-benzenesulfonylamino)-phenoxy]-6-methoxy-quinolin-7-yloxy}-N,N-dimethyl-acetamide]: the IC50 in the experiment on U118, in the experiment on Hs578T, in the experiment on SF763 [1], in the experiment with U138 [2], in the experiment with C8161 [3] and in the experiment on SF126 was no more than 12.5 µM in each case. The IC50 with cells (Homo sapiens, Hs-578T, 16 h) was 5 to 50 µM; with cells it was no more than 5 µM; with SF763 [4] it was 12.5 to 50 µM; in the experiment on U138 [5], 12.5 to 50 µM; with C8161 [6], no more than 12.5 µM; in the experiment on MDA-MB231 (setting [7]), 12.5 to 50 µM.
`COc1cc2c(Oc3ccc(NS(=O)(=O)c4ccccc4C(F)(F)F)cc3F)ccnc2cc1OCCCNC1CCOCC1` [Example 95, N-(3-Fluoro-4-{6-methoxy-7-[3-(tetrahydro-pyran-4-ylamino)-propoxy]-quinolin-4-yloxy}-phenyl)-2-trifluoromethyl-benzenesulfonamide]: the IC50 in the experiment with U118, with Hs578T, in the experiment on SF763 [1], in the experiment with U138 [2], in the experiment on C8161 [3] and with SF126 was no more than 12.5 µM each time. Further, the IC50 is no more than 5 µM with cells (Homo sapiens, Hs-578T, 16 h); no more than 12.5 µM with SF763 [4]; no more than 12.5 µM in the experiment with U138 [5]; 12.5 to 50 µM with C8161 [6]; no more than 12.5 µM with MDA-MB231 (setting [7]).
As for `COc1cc2c(Oc3ccc(NS(=O)(=O)c4ccccc4C(F)(F)F)cc3F)ccnc2cc1OCCCN1CCCCC1C` (stereo not shown) [Example 99, N-(3-Fluoro-4-{6-methoxy-7-[3-(2-methyl-piperidin-1-yl)-propoxy]-quinolin-4-yloxy}-phenyl)-2-trifluoromethyl-benzenesulfonamide], the IC50 in the experiment with U118 is 12.5 to 50 µM; in the experiment on Hs578T, no more than 12.5 µM; in the experiment on SF763 [1] it was no more than 12.5 µM; in the experiment with U138 [2], no more than 12.5 µM; with C8161 [3] it was no more than 12.5 µM; in the experiment on SF126, no more than 12.5 µM. Also, the IC50 is no more than 12.5 µM in the experiment on A172; no more than 12.5 µM in the experiment on SF763 [4]; no more than 12.5 µM with U138 [5]; 12.5 to 50 µM in the experiment with C8161 [6]; no more than 12.5 µM in the experiment on MDA-MB231 (setting [7]).
